In patent publication US11230535B2, “CFTR regulators and methods of use thereof” (THE REGENTS OF THE UNIVERSITY OF CALIFORNIA, priority 2015, dated 2022):

Target: human wild-type CFTR (Homo sapiens, UniProt P13569)
Assay: Cell-based plate reader (YFP iodide influx) assay of CFTR function
Design: expressed in transfected cells; host or cells: Fischer rat thyroid (FRT) cells stably co-expressing YFP-H148Q
Settings: N,N-diethyl-N′-aryl-1,3,5-triazine diamine analogs; read-out: EC50 for CFTR activation
Protocol: The initiate rate of I^− influx was computed by determined using exponential regression. All compound plates contained negative controls (DMSO vehicle) and positive controls (20 μM forskolin).
High-throughput screening. […] The initiate rate of I^− influx was computed by determined using exponential regression. All compound plates contained negative controls (DMSO vehicle) and positive controls ([…] forskolin).
Platereader assays of chloride channel function. CFTR activity was assayed as described. […] I^− influx was measured in a plate reader with initial baseline read for 2 s and then for 12 s after rapid addition of an I^−-containing solution. TMEM16A activity was assayed similarly as described using FRT cells co-expressing YFP and TMEM16A. Activity of non-TMEM16A CaCC was assayed as described in HT-29 cells expressing YFP. In each assay initial rates of I^− influx were computed as a linear measure of channel function.

Sequence of human wild-type CFTR (P13569 whole entry): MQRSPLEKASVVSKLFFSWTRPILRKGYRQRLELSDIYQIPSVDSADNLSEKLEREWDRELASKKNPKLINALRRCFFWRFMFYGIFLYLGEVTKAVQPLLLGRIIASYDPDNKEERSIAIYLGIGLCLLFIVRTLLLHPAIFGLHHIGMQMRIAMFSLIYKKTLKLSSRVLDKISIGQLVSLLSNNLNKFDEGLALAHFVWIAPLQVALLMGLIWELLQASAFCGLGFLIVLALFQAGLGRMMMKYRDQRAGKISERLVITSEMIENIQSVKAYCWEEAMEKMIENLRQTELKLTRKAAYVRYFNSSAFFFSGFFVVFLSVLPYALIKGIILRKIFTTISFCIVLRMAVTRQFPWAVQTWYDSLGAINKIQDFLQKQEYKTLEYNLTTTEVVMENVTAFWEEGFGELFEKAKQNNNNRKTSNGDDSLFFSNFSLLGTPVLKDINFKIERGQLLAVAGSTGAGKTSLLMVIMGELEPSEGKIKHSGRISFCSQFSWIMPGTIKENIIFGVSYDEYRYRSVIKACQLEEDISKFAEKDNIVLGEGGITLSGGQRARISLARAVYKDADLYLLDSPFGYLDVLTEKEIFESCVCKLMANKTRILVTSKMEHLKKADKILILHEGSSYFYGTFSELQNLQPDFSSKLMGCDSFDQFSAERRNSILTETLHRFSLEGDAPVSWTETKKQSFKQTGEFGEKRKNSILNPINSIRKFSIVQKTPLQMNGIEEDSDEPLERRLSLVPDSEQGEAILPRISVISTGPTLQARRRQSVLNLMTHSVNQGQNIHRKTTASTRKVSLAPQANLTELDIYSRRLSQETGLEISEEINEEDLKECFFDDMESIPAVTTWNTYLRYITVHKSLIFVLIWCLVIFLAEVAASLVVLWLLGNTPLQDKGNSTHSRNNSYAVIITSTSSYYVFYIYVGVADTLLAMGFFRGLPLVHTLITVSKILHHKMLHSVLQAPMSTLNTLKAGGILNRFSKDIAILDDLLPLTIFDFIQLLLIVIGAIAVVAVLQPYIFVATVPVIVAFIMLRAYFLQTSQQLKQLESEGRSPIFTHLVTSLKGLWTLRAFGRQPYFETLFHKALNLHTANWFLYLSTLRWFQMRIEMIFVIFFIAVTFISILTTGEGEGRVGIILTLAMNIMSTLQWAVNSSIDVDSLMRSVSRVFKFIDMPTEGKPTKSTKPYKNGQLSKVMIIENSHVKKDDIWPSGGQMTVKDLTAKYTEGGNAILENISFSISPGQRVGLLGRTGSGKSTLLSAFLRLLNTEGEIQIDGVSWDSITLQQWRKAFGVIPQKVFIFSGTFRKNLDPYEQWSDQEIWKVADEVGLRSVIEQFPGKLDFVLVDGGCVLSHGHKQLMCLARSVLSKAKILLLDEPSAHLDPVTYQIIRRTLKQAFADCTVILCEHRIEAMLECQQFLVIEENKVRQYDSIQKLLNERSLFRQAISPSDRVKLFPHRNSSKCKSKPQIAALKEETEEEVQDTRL

In order of rising EC50:
1. CCN(CC)c1nc(Nc2cccc(F)c2)nc(OC(C(F)(F)F)C(F)(F)F)n1 [6b, N,N-Diethyl-N′-(3-fluorophenyl)-6-[(1,1,1,3,3,3-hexafluoropropan-2-yl)oxy]-1,3,5-triazine-2,4-diamine]  140 nM
2. CCN(CC)c1nc(Nc2cccc(C(=O)O)c2)nc(OC(C(F)(F)F)C(F)(F)F)n1 [6a, 3-({4-(diethylamino)-6-[(1,1,1,3,3,3-hexafluoropropan-2-yl)oxy]-1,3,5-triazin-2-yl}amino)benzoic acid]  160 nM
3. CCN(CC)c1nc(Nc2cccc(C(=O)O)c2)nc(OCC(F)(F)C(F)F)n1 [7b, 3-{[4-(Diethylamino)-6-(2,2,3,3-tetrafluoropropoxy)-1,3,5-triazin-2-yl]amino}benzoic acid]  500 nM
4. CCN(CC)c1nc(Nc2ccc(F)cc2)nc(OC(C(F)(F)F)C(F)(F)F)n1 [6f, N,N-Diethyl-N′-(4-fluorophenyl)-6-[(1,1,1,3,3,3-hexafluoropropan-2-yl)oxy]-1,3,5-triazine-2,4-diamine]  700 nM
5. CCN(CC)c1nc(Nc2ccc(C(=O)O)cc2)nc(OC(C(F)(F)F)C(F)(F)F)n1 [6e, 4-({4-(Diethylamino)-6-[(1,1,1,3,3,3-hexafluoropropan-2-yl)oxy]-1,3,5-triazin-2-yl}amino)benzoic acid]  900 nM
6. CCN(CC)c1nc(Nc2cccc([N+](=O)[O-])c2)nc(OCC(F)(F)C(F)F)n1 [7e, N,N-Diethyl-N′-(3-nitrophenyl)-6-(2,2,3,3-tetrafluoropropoxy)-1,3,5-triazine-2,4-diamine]  1200 nM
7. CCN(CC)c1nc(Nc2cccc(F)c2)nc(OCC(F)(F)C(F)F)n1 [7c, N,N-Diethyl-N′-(3-fluorophenyl)-6-(2,2,3,3-tetrafluoropropoxy)-1,3,5-triazine-2,4-diamine]  1600 nM
8. CCN(CC)c1nc(Nc2ccccc2)nc(OCC(F)(F)C(F)F)n1 [7a, N,N-Diethyl-N′-phenyl-6-(2,2,3,3-tetrafluoropropoxy)-1,3,5-triazine-2,4-diamine]  2000 nM
9. CCN(CC)c1nc(Nc2ccc(F)cc2)nc(OCC(F)(F)C(F)F)n1 [7g, N,N-Diethyl-N′-(4-fluorophenyl)-6-(2,2,3,3-tetrafluoropropoxy)-1,3,5-triazine-2,4-diamine]  4800 nM
10. CCN(CC)c1nc(Nc2cccc(Cl)c2)nc(OCC(F)(F)C(F)F)n1 [7d, N′-(3-Chlorophenyl)-N,N-diethyl-6-(2,2,3,3-tetrafluoropropoxy)-1,3,5-triazine-2,4-diamine]  5400 nM
11. CCN(CC)c1nc(Nc2ccc([N+](=O)[O-])cc2)nc(OC(C(F)(F)F)C(F)(F)F)n1 [6g, N,N-Diethyl-6-[(1,1,1,3,3,3-hexafluoropropan-2-yl)oxy]-N-(4-nitrophenyl)-1,3,5-triazine-2,4-diamine]  18000 nM

Same assay, conditions: bicyclic aniline analogs; read-out: EC50

In the case of `CCN(CC)c1nc(Nc2ccc3cn[nH]c3c2)nc(OC(C(F)(F)F)C(F)(F)F)n1` [6i, N,N-Diethyl-6-[(1,1,1,3,3,3-hexafluoropropan-2-yl)oxy]-N-(1H-indazol-6-yl)-1,3,5-triazine-2,4-diamine], the EC50 is reported as 2800 nM.

Same assay, conditions: commercial analogs; FRT cells with YFP and wildtype CFTR, 125 nM forskolin

In order of falling “% Activation” value:
1. C=CCNc1nc(Nc2ccc(Cl)cc2)nc(OC)n1 [K034]  73%
2. CNc1nc(Nc2ccc(OC(F)(F)Cl)cc2)nc(OCC(F)(F)F)n1 [K024]  64%
3. C=CCNc1nc(Nc2ccc(F)cc2)nc(OC(C(F)(F)F)C(F)(F)F)n1 [K002]  63%
4. COc1nc(Nc2ccc(O)cc2)nc(OC(C(F)(F)F)C(F)(F)F)n1 [K031]  61%
5. FC(F)(F)COc1nc(Nc2ccccc2)nc(OCC(F)(F)F)n1 [K018]  60%
6. CCOc1nc(Nc2ccccc2)nc(NC2CCCC2)n1 [K009]  57%
7. COc1nc(Nc2ccc(Cl)cc2)nc(NC2CCCCC2)n1 [K035]  55%
8. COc1nc(Nc2ccc(Cl)cc2)nc(NC(C)(C)C)n1 [K022]  53%
9. CCOc1nc(Nc2ccc(Cl)cc2)nc(NC2CCCCC2)n1 [K038]  53%
10. CCCCCCNc1nc(Nc2ccc(Cl)cc2)nc(OCC)n1 [K036]  46%
11. COc1nc(Nc2ccc([N+](=O)[O-])cc2)nc(OC)n1 [K023]  41%
12. CNc1nc(OCC(F)(F)F)nc(N(c2ccccc2)c2ccccc2)n1 [K020]  37%
13. C=CCNc1nc(Nc2ccc(I)cc2)nc(OC)n1 [K041]  35%
14. CNc1nc(Nc2ccc(C(C)=O)cc2)nc(OC(C(F)(F)F)C(F)(F)F)n1 [K001]  32%
15. COc1nc(Nc2ccccc2)nc(Nc2ccccc2)n1 [K008]  32%
16. O=[N+]([O-])c1ccccc1Nc1nc(OCC(F)(F)F)nc(OCC(F)(F)F)n1 [K005]  29%
17. Cc1ccccc1Nc1nc(OCC(F)(F)F)nc(OCC(F)(F)F)n1 [K019]  28%
18. CCCCCCNc1nc(Nc2ccc(I)cc2)nc(OC)n1 [K039]  27%
19. COc1nc(Nc2ccc(OC)c(Cl)c2)nc(OC)n1 [K028]  23%
20. COc1nc(NCCO)nc(Nc2ccc(Cl)cc2)n1 [K033]  22%
21. CNc1nc(Nc2ccccc2C(F)(F)F)nc(OC(C(F)(F)F)C(F)(F)F)n1 [K007]  21%
22. FC(F)(F)C(Oc1nc(Nc2ccccc2)nc(OC(C(F)(F)F)C(F)(F)F)n1)C(F)(F)F [K010]  21%
23. Cc1ccc(Nc2nc(OC(C(F)(F)F)C(F)(F)F)nc(OC(C(F)(F)F)C(F)(F)F)n2)cc1 [K011]  20%
24. CC(C)Nc1nc(Nc2ccc([N+](=O)[O-])cc2)nc(OC(C(F)(F)F)C(F)(F)F)n1 [K027]  20%
25. Cc1ccccc1Nc1nc(OC(C(F)(F)F)C(F)(F)F)nc(OC(C(F)(F)F)C(F)(F)F)n1 [K012]  19%
26. CC(=O)c1ccc(Nc2nc(OC(C(F)(F)F)C(F)(F)F)nc(OC(C(F)(F)F)C(F)(F)F)n2)cc1 [K016]  19%
27. CCOc1nc(NCCO)nc(Nc2ccc(I)cc2)n1 [K043]  19%
28. O=[N+]([O-])c1cccc(Nc2nc(OC(C(F)(F)F)C(F)(F)F)nc(OC(C(F)(F)F)C(F)(F)F)n2)c1 [K014]  18%
29. COc1nc(NCCO)nc(Nc2ccc(I)cc2)n1 [K040]  17%
30. CC(C)(C)Nc1nc(Nc2ccc(OC(F)(F)F)cc2)nc(OCC(F)(F)F)n1 [K003]  16%
31. FC(F)(F)C(Oc1nc(Nc2cccc3ccccc23)nc(OC(C(F)(F)F)C(F)(F)F)n1)C(F)(F)F [K004]  16%
32. FC(F)(F)C(Oc1nc(Nc2cccnc2)nc(OC(C(F)(F)F)C(F)(F)F)n1)C(F)(F)F [K017]  16%
33. COc1nc(NCCN2CCOCC2)nc(Nc2ccccc2)n1 [K021]  16%
34. FC(F)(F)COc1nc(Nc2ccc(OC(F)(F)Cl)cc2)nc(OCC(F)(F)F)n1 [K026]  16%
35. CCCCNc1nc(Nc2ccc(OC(F)(F)F)cc2)nc(OCC(F)(F)F)n1 [K030]  16%
36. O=[N+]([O-])c1ccccc1Nc1nc(OC(C(F)(F)F)C(F)(F)F)nc(OC(C(F)(F)F)C(F)(F)F)n1 [K013]  15%
37. COc1nc(Nc2ccc(I)cc2)nc(OC2CCCCC2)n1 [K042]  15%
38. CC(C)(C)Nc1nc(Nc2ccc(OC(F)(F)Cl)cc2)nc(OCC(F)(F)F)n1 [K029]  9%
39. O=[N+]([O-])c1ccc(Nc2nc(OC(C(F)(F)F)C(F)(F)F)nc(OC(C(F)(F)F)C(F)(F)F)n2)cc1 [K015]  6%
